From article PMC3353318 (Bioorganic & Medicinal Chemistry, 2011)

Legend:
A/M2 V27A mutant = A/M2 V27A mutant (Influenza A virus, UniProt P0DOF5, V27A); format: cell-based, influenza A/Udorn/72
A/M2 S31N mutant = A/M2 S31N mutant (Influenza A virus, UniProt P0DOF5, S31N); format: cell-based, influenza A/Udorn/72

Substance | inhibition of V27A A/M2 channel activity (in words) (A/M2 V27A mutant) | inhibition of S31N A/M2 channel activity (in words) (A/M2 S31N mutant)
6,7,8,9,10,11-Hexahydro-9-methyl-5,7:9,11-dimethano-5H-benzocyclononen-7-amine hydrochloride [Compound 3] | Neither 3 nor 11 were able to inhibit | Neither 3 nor 11 were able to inhibit
N,N-Dimethyl-6,7,8,9,10,11-hexahydro-9-methyl-5,7:9,11-dimethano-5H-benzocyclononen-7-amine hydrochloride [Compound 11] | Neither 3 nor 11 were able to inhibit | Neither 3 nor 11 were able to inhibit
N-Benzyl-6,7,8,9,10,11-hexahydro-9-methyl-5,7:9,11-dimethano-5H-benzocyclononen-7-amine hydrochloride [Compound 6] | unable to inhibit | unable to inhibit
